Reference: EP0501442B1, “8-chloro-benzothiazepine-compound for prophylaxis and treatment of sequelae of cerebral neurocyte necrosis” (priority 1991, dated 1992)

Assay: Acute oral toxicity (50 % lethal dose) in mice
Details: mouse, in vivo, orally administered to mice, read-out: 50 % lethal dose (LD₅₀)
Experimental: Further, the benzothiazepine derivative (I) or a pharmacologically acceptable salt thereof has low toxicity and high safety. For example, when 2-(4-methoxyphenyl)-3-acetoxy-5-[2-(dimethylamino)ethyl]-8-chloro-2,3-dihydro-1,5-benzothiazepin-4(5H)-one·maleate is orally administered to mice, its 50 % lethal dose (LD₅₀) was about 800 mg/kg.

COc1ccc([C@@H]2Sc3cc(Cl)ccc3N(CCN(C)C)C(=O)[C@@H]2OC(C)=O)cc1 [(+)-cis-2-(4-methoxyphenyl)-3-acetoxy-5-[2-(dimethylamino)ethyl]-8-chloro-2,3-dihydro-1,5-benzothiazepin-4(5H)-one·maleate]
LD50: ~800 mg/kg
